Measurements reported in patent publication US5292737A, “N,N'-bis(sulfonamido)-2-amino-4-iminonaphthalen-1-ones and N,N'-bis(amido)-2-amino-4-iminonaphthalen-1-ones” (Sphinx Pharmaceuticals Corporation, priority 1992, dated 1994).

Assays:
PKC isoenzyme ε = biological target: T1, PKC isoenzyme ε (Homo sapiens, UniProt Q02156); assay: Protein kinase C inhibition assay, PKC isoenzyme ε; type: biochemical; settings: read-out: IC50 PKC ε
T1 construct: made in house; host or cells: baculovirus-insect cell expression system
T1 sequence (Q02156 1-737): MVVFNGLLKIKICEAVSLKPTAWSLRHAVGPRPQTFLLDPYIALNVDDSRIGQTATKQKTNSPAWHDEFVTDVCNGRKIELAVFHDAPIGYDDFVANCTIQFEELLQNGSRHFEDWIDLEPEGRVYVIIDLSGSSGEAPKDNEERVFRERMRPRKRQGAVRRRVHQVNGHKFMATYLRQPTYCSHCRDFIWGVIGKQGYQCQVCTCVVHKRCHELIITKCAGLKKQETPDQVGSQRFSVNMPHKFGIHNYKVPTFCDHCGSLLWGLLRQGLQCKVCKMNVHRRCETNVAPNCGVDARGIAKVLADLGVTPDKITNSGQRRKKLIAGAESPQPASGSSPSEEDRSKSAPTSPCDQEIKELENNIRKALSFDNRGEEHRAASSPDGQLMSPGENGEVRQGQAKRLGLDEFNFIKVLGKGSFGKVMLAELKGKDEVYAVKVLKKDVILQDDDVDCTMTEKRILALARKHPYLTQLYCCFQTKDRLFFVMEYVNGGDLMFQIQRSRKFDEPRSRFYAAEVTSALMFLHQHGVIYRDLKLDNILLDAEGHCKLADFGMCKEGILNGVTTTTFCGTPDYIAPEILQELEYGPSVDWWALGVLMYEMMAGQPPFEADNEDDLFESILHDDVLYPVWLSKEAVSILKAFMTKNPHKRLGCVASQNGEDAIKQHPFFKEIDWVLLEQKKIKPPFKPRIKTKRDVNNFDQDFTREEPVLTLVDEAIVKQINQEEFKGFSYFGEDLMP
Procedure: (§1) A protein kinase C (PKC) assay is designed to duplicate the in vivo conditions required for protein kinase C function. Therefore, pH, salt and cofactor concentrations are similar to physiologic levels. Either lysine rich histone H1 (H1) or Myelin basic protein (Mbp) are used in the assay as the phosphorylation acceptor-protein because they are readily available and serve as good substrates for protein kinase C. Enzyme was prepared from baculovirus-insect cell expression systems.
(§2) In the screening assay, phosphatidylserine (PS) and DAG were co-sonicated to form unilamellar and multilamellar vesicles. The concentration of lipids in the assay were suboptimal to maximize the detection potential of the assay for inhibitors or activators. Potential effector compounds were added to the assay in dimethylsulfoxide at four concentrations to give final inhibitor concentrations of 1, 10, 50, and 150 μM, respectively.
(§3) The assay was started with the addition of enzyme and stopped after 10 min by the addition of 25% trichloroacetic acid (TCA) and 1.0 mg/ml bovine serum albumin (BSA). The radioactive histone product was retained and washed on glass fiber filters that allow the unreacted P-ATP to pass through. The amount of phosphorylation was determined by measuring radioactivity with a scintillation counter. Controls were included in every assay to measure background activity in the absence of enzyme, activity in the absence of lipids, and the maximum enzyme activity with saturating levels of the activator lipids.
(§4) Results of the protein kinase C assay are shown in Table 4 in columns labeled α, βII, γ, δ, ε, and .zeta. which represent various PKC isoenzymes. Results are show as IC50, which is the concentration of test compound needed to inhibit 50% of the protein kinase C activity in controls.

PKC isoenzyme δ = biological target: T2, PKC isoenzyme δ (Homo sapiens, UniProt Q05655); assay: Protein kinase C inhibition assay, PKC isoenzyme δ; type: biochemical; settings: read-out: IC50 PKC δ
T2 construct: made in house; host or cells: baculovirus-insect cell expression system
Procedure: as §1, §2, §3, §4

PKC isoenzyme α = biological target: T3, PKC isoenzyme α (Homo sapiens, UniProt P17252); assay: Protein kinase C inhibition assay, PKC isoenzyme α; type: biochemical; settings: read-out: IC50 PKC α
T3 construct: made in house; host or cells: baculovirus-insect cell expression system
Procedure: as §1, §2, §3, §4

PKC isoenzyme γ = biological target: T4, PKC isoenzyme γ (Homo sapiens, UniProt P05129); assay: Protein kinase C inhibition assay, PKC isoenzyme γ; type: biochemical; settings: read-out: IC50 PKC γ
T4 construct: made in house; host or cells: baculovirus-insect cell expression system
Procedure: as §1, §2, §3, §4

PKC isoenzyme βII = biological target: T5, PKC isoenzyme βII (Homo sapiens, UniProt P05771); assay: Protein kinase C inhibition assay, PKC isoenzyme βII; type: biochemical; settings: read-out: IC50 PKC βII
T5 construct: made in house; host or cells: baculovirus-insect cell expression system
Procedure: as §1, §2, §3, §4

[1] = tested on: normal human epidermal keratinocyte (NHEK) cells; assay: Human Keratinocyte Inhibition (3H TdR Assay); type: cell-based; settings: Homo sapiens, 24 h incubation, 3H-thymidine
Procedure: Proliferating normal human epidermal keratinocyte (NHEK) cells were obtained in the second passage and grown in keratinocyte growth medium, KGM (Clonetics, Inc.) at 37° C., 5% CO2. The cells were trypsinized (0.25%), centrifuged, counted with a hemocytometer, and seeded at a concentration of 5000 cells in 100 μl well in a 96-well microtiter plate.
After the cells were allowed to attach to the microtiter plate overnight, test agents were titrated to determine the dose response. This was done by adding each test agent dilution in quadruplicate to the plate at 2× final concentration in 100 μl to bring the total volume of each well to 200 μl. Culture media with no test agent added was used as a normal control. Duplicate sets of plates were established.
After twenty-four hours of incubation with test compounds 37° C. and 5% CO2, […] of 0.01 mCi/ml tritiated thymidine (New England Nuclear) was added to each well and allowed to incubate for another 4 hours under the same conditions.
Supernatant was aspirated and discarded and […] of 0.05% trypsin (Gibco) was added to each cell. Cells were checked microscopically to determine detachment from surfaces and then harvested onto glass filters. The filters were then placed in vials to which scintillant was added and counted for one minute each in a scintillation counter.
Determine mean cpm of wells containing test agent (n=4) or KGM control (n=16). Calculate % of control by the formula: [formula]
The IC50, or connection necessary to inhibit 50% of control, of each test agent was determined by plotting % control vs log concentration for each dilution and then linear forecasting the 50% control value onto the X axis on a Quatro Pro computer program. Only regression values with a correlation coefficient greater than 0.9 were considered acceptable.

PKC isoenzyme ζ = biological target: T6, PKC isoenzyme ζ (Homo sapiens, UniProt Q05513); assay: Protein kinase C inhibition assay, PKC isoenzyme ζ; type: biochemical; settings: read-out: IC50 PKC .zeta.
T6 construct: made in house; host or cells: baculovirus-insect cell expression system
T6 sequence (Q05513 1-592): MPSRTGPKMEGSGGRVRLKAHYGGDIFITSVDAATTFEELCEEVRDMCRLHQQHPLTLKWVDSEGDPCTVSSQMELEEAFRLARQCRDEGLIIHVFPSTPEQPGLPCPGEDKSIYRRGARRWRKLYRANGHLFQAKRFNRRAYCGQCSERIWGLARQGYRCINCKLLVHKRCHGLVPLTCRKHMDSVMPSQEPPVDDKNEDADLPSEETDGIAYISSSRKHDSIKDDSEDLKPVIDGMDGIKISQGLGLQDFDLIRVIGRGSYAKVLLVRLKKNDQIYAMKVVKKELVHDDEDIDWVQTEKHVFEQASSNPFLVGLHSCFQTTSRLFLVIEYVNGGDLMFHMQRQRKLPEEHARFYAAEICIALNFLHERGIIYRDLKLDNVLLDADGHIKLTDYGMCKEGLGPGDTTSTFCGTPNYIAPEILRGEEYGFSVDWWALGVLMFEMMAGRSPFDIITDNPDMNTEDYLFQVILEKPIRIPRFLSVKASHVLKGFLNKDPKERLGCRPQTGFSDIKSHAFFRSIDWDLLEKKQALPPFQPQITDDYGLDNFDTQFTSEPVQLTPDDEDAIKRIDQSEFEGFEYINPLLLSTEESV
Procedure: as §1, §2, §3, §4

[2] = biological target: cAMP dependent protein kinase (PKA); assay: cAMP Dependent Protein Kinase (PKA) Assay; type: biochemical
Procedure: Compounds found to be inhibitors of protein kinase C were tested for inhibitory activity against cAMP dependent protein kinase (PKA). This enzyme, like protein kinase C, plays an important role in cell-cell communication and is activated by a second messenger, cAMP. Secondary screening against PKA is useful for ascertaining the selectivity of the compounds of the invention.
The catalytic subunit of PKA (Sigma Chemical Company, St. Louis, Mo.) was mixed with buffer before addition of the inhibitor in dimethylsulfoxide (DMSO). Potential inhibitor compounds were added to the assay in dimethylsulfoxide at two concentrations to give final inhibitor concentrations of 30 and 150 μM, respectively. The assay was started by the addition of ^32 P-ATP and the reaction was allowed to proceed for 10 min before stopping with 25% trichloroacetic acid (TCA) and 1.0 mg/ml bovine serum albumin (BSA). Phosphorylated protein was then isolated by filtration and the radioactivity was counted by a beta scintillation counter.

T2 sequence (Q05655 whole entry): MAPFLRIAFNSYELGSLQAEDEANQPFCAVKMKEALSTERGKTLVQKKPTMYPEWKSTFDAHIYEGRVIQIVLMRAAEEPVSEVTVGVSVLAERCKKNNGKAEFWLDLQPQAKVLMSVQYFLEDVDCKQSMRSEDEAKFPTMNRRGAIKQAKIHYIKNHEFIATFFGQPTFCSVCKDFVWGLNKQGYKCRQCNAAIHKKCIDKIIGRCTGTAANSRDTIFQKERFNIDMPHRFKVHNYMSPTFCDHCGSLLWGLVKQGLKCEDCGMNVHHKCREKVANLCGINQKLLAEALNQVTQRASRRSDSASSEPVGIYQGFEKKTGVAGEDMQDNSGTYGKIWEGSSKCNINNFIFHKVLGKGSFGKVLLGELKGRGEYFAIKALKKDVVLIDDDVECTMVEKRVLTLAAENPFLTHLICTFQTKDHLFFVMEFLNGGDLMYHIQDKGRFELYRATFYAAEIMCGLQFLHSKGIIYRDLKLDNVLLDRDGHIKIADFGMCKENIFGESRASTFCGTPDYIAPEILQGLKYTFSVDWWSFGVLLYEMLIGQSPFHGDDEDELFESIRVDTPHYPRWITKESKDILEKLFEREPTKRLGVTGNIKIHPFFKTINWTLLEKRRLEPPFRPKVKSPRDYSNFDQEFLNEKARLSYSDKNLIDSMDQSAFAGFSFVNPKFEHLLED
T5 sequence (P05771 1-673 isoform P05771-2): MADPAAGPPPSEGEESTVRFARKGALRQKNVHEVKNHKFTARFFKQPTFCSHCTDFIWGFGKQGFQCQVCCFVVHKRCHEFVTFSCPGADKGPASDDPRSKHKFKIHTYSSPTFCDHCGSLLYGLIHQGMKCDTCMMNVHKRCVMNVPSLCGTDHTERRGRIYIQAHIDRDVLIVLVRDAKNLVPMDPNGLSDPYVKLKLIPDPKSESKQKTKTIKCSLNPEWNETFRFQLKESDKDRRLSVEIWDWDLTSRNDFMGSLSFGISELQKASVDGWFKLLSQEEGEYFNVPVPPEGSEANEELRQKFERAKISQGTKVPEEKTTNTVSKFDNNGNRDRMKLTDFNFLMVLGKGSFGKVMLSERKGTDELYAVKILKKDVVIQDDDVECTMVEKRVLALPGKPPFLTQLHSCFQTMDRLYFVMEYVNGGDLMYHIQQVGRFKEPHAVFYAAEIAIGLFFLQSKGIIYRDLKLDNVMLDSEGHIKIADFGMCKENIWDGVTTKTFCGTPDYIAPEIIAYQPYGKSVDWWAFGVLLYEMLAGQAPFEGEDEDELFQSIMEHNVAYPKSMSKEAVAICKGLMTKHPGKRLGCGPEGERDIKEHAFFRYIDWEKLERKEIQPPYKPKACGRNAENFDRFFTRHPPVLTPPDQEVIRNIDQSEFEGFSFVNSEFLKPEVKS

Q: Which results are given for `CCCCCCCCCCCCCCCCNS(=O)(=O)c1ccc(N=C2C=C(Nc3ccc(S(=O)(=O)NCCCCCCCCCCCCCCCC)cc3)C(=O)c3ccccc32)cc1` [Compound 3o]?
A: IC50 (PKC isoenzyme ε): > 150 µM; IC50 (PKC isoenzyme δ): 139 µM; IC50 (PKC isoenzyme α): 117 µM; IC50 (PKC isoenzyme γ): 118 µM; IC50 (PKC isoenzyme βII): 138 µM; IC50 [1]: 3.8 µM; IC50 (PKC isoenzyme ζ): 26 µM; IC50 ([2]; catalytic subunit of PKA): > 150 µM; effect on PKA activity ([2]; result in words): did not effect on PKA activity
